We go through 2 compounds from patent US20220162561A1, “COMPOSITION FOR PROMOTING SECRETION OF EXTRACELLULAR VESICLES” (priority 2019, published 2022).

In data set [1] the test system is U-87 MG cells. Kind of data set: Test Example 1: promotion of secretion of extracellular vesicles, Tim4-CD9 / Tim4-CD63 ELISA of culture supernatant. Type of data set: cell-based. To be noted: 24 hours. The method, then:
For the detection of extracellular vesicles contained in the culture supernatant, the Tim4-CD63 ELISA method or Tim4-CD9 ELISA method mentioned later was used.
To a 384-well plate (#464718 manufactured by Thermo Fisher Scientific K.K.) was added 1 μg/mL Tim4 protein prepared in Carbonate Buffer (a solution containing 71.4 mM NaHCO3 and 28.6 mM Na2CO3), and it was made a solid phase. The 384-well plate was washed with a 0.05% (v/v %) Tween 20-containing TBS (Tris-Buffer Saline) solution (hereinafter sometimes referred to as “TBST solution”), and then, 50 μL/well of a TBST solution containing 1% (w/v %) BSA was added thereto to carry out a blocking treatment for 1 hour. Next, 30 μL of the culture supernatant recovered above was added to the well, and further 10 μL of an 8 mM CaCl2) solution was added thereto to bind extracellular vesicles to the Tim4 protein. At this time, as a comparative object, a compound-untreated culture supernatant (solvent alone, control) was added to the Tim4 protein solid-phased plate in the same manner. Subsequently, 30 μL/well of 1 μg/mL Anti-human CD63 Antibody (#353014 available from BioLegend Inc.) diluted with a TBST solution containing 2 mM CaCl2) was added thereto and the mixture was reacted for 1 hour. To the mixture was added 50 μL/well of a TBST solution containing 2 mM CaCl2), and then, the TBST solution was removed. After repeating this operation three times, 30 μL/well of 80 ng/mL HRP-conjugated Anti-mouse IgG (#405306 available from BioLegend Inc.) diluted with a TBST solution containing 2 mM CaCl2) was added thereto and the mixture was reacted for 1 hour. Finally, 30 μL/well of a TMB solution (#05298-80 available from Nacalai Tesque Inc.) was added to the mixture and the mixture was reacted for 30 minutes, and then, 30 μL/well of a 1M H2504 solution was added thereto to stop the reaction and by measuring an absorbance at 450 nm to detect the amount of the extracellular vesicles. A relative value when the compound-untreated group (control) was made 1 was calculated. […]
For orientation: In an ELISA, binding on a coated surface is turned into a signal by an enzyme label.

Data set [2] concerns U-87 MG cells. To be noted: concentration of at least about 2 μM or less. The method, then: After stirring 10 mL of deactivated FBS and 2 mL of a 50% (w/v %) Poly(ethylene glycol) 10,000 solution (#81280 available from Sigma-Aldrich Co., LLC) at 4° C. for 2 hours, extracellular vesicles were precipitated under the centrifugation conditions of 1,500×g at 4° C. for 30 minutes, and the supernatant was recovered to prepare Exosome-free FBS.

The test system of data set [3] is 293 cells. The data set is described as follows: Test Examples 10 and 11: promotion of secretion of extracellular vesicles, Tim4-CD63 / Tim4-CD81 ELISA and nanoparticle tracking analysis. Type of data set: cell-based. To be noted: final concentration 0 to 1 μM, 24 hours. As for the experimental part:
(§1) After stirring 10 mL of deactivated FBS and 2 mL of a 50% (w/v %) Poly(ethylene glycol) 10,000 solution (#81280 available from Sigma-Aldrich Co., LLC) at 4° C. for 2 hours, extracellular vesicles were precipitated under the centrifugation conditions of 1,500×g at 4° C. for 30 minutes, and the supernatant was recovered to prepare Exosome-free FBS. Next, 293 cells (CRL-1573TM available from ATCC) or 293T cells (CRL-3216TM available from ATCC) were suspended in Advanced DMEM (#12491015 available from Thermo Fisher Scientific K.K.) containing 2% (v/v %) Exosome-free FBS with 2×10^4 cells/200 μL, seeded on an adhesive surface 96-well plate (#3595 manufactured by Corning Inc.) and pre-culture was carried out for 24 hours. After 24 hours, the culture solution was removed, a mixed solution of 199.5 μL of 2% (v/v %) Exosome-free FBS-containing Advanced DMEM and 0.5 μL (final concentration: 0 to 1 μM) of the compound of Example 1, 5 or 9 prepared in DMSO was added thereto, and the cells were cultured for 24 hours. Thereafter, the culture solution was recovered in a 1.5 mL tube, the cells were precipitated under centrifugation conditions of 300×g at 4° C. for 5 minutes, and the culture supernatant was recovered. Subsequently, the recovered culture supernatant was subjected to centrifugation under the conditions of 2,000×g at 4° C. for 20 minutes to precipitate cell fragments, and the supernatant was recovered. Further, the recovered supernatant was subjected to centrifugation under the conditions of 10,000×g at 4° C. for 30 minutes, and the supernatant was recovered. For detection of the extracellular vesicles contained in the supernatant after centrifugation of 10,000×g, Tim4-human CD63 ELISA method and Tim4-human CD81ELISA method mentioned later was used.
(§2) <Tim4-Human CD63 ELISA Method>100 μL/well of 1 μg/mL Tim4 protein prepared in Carbonate Buffer (solution containing 71.4 mM NaHCO3 and 28.6 mM Na2CO3) was added to a 96-well plate (#3801-096 manufactured by IWAKI & CO., LTD.) and made it a solid phase. After washing the 96-well plate with a TBST solution, 200 μL/well of the TBST solution containing 1% (w/v %) BSA was added thereto and a blocking treatment for 1 hour was carried out. Next, 90 μL of the supernatant recovered as mentioned above was added to the well, and 10 μL of a 20 mM CaCl2) solution was further added to bind the extracellular vesicles to the Tim4 protein. Subsequently, 100 μL/well of 1 μg/mL Anti-human CD63 Antibody (#353014 available from BioLegend Inc.) diluted with the TBST solution containing 2 mM CaCl2) was added thereto and the reaction was carried out for 1 hour. 200 μL/well of the TBST solution containing 2 mM CaCl2) was added thereto, and thereafter, the TBST solution was removed. […]

The subject of data set [4] is 293T cells. Described as above. Type of data set: cell-based. To be noted: final concentration 0 to 1 μM, 24 hours. The method, then: as §1, §2
The test system of data set [5] is 293 cells. The data set is described as follows: Test Example 12: cytotoxicity, LDH activity in culture supernatant. Type of data set: cell-based. To be noted: concentration of at least about 0.3 μM or less.
Procedure: (§4) After stirring 10 mL of deactivated FBS and 2 mL of a 50% (w/v %) Poly(ethylene glycol) 10,000 solution (#81280 available from Sigma-Aldrich Co., LLC) at 4° C. for 2 hours, extracellular vesicles were precipitated under the centrifugation conditions of 1,500×g at 4° C. for 30 minutes, and the supernatant was recovered to prepare Exosome-free FBS. Next, 293 cells (CRL-1573TM available from ATCC) or 293T cells (CRL-3216TM available from ATCC) were suspended in Advanced DMEM (#12491015 available from Thermo Fisher Scientific K.K.) containing 2% (v/v %) Exosome-free FBS with 2×10^4 cells/200 μL, seeded on an adhesive surface 96-well plate (#3595 manufactured by Corning Inc.), and pre-culture for 24 hours was carried out. […] The activity of lactate dehydrogenase (LDH) contained in the culture supernatant was measured using
(§5) Cytotoxicity LDH Assay Kit-WST (#CK12 manufactured by Dojindo Laboratories). […] The reaction was stopped by adding 25 μL of Stop Solution, and the cytotoxicity was evaluated by measuring the absorbance at 490 nm. The activities of LDH of the dead cell group (sample to which 20 μL of Lysis Buffer was added to compound-untreated cells 15 minutes before recovery of the culture solution) and the culture solution (culture solution in which no cell culture was carried out) were also measured in the same manner, and cytotoxicity of each compound was evaluated.
Data set [6] concerns 293T cells. The description is as above. Type of data set: cell-based. To be noted: concentration of at least about 0.3 μM or less.
Procedure: as §4, §5
The test system of data set [7] is 293 cells. Kind of data set: Test Example 13: cell proliferation activity, Cell Count Reagent SF. Type of data set: cell-based. The method, then:
(§3) After 30 minutes, absorbance at 450 nm was measured to evaluate cell proliferation activity.

Data set [8] deals with 293T cells. The description is as above. Type of data set: cell-based. The method, then: as §3
Setting [9] is: concentration of at least about 0.3 μM or less.
Where [10] appears, read: concentration of at least about 0.03 μM (30 nM) or less.

With `CC(=O)O.Cc1cc2c(C(C)C)c(O)c(O)c(C=O)c2c(O)c1-c1c(C)cc2c(C(C)C)c(O)c(O)c(C=O)c2c1O` (racemic) [Example 1, (±)-Gossypol Acetate], the “secretion of CD9 and/or CD63-positive extracellular vesicles” value in data set [1] (10 μM) is listed as “strongly promoted secretion”. Moreover, the “cytotoxicity to U-87 MG cells (LDH amount in the culture supernatant)” value in data set [2] is “low”. Besides, the “amount of secretion of CD63 and/or CD81-positive extracellular vesicles” value in data set [3] and in data set [4] was “promotes” each time. The “cytotoxicity (LDH amount in the culture supernatant)” value in data set [5] and in data set [6] was “low cytotoxicity” in each case. Further, the “effect on the proliferative activity” value in data set [7] (setting [9]) and in data set [8] (setting [9]) was “do not significantly affect” throughout.

Take `COC1=CC(c2cc3ccccc3[nH]2)=N/C1=C\c1[nH]c(C)cc1C.CS(=O)(=O)O` [Example 5, Obatoclax Mesylate]: the “secretion of CD9 and/or CD63-positive extracellular vesicles” value in data set [1] (5 μM) is listed as “promotes secretion”. The “secretion of CD63-positive extracellular vesicles” value in data set [1] (5 μM) is on record as “strongly promoted secretion”. The “amount of secretion of CD63 and/or CD81-positive extracellular vesicles” value in data set [3] and in data set [4] was “promotes” each time. Also, the “effect on the proliferative activity” value in data set [7] (setting [10]) and in data set [8] (setting [10]) was “do not significantly affect” each time.
